Results from the supplement of paper PMC11451515.

What was measured:
Conditions in all cases: 48 h
NOMO1 [1] = assay: cell viability relative to DMSO control; higher = less cytotoxic
Outline: (§1)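 NOMO1, SEM and P12-Ichikawa leukemia cells spent at least four passages adapting to each medium before use. They were seeded at 500 cells/well (NOMO1, SEM) or 1000 cells/well (P12-Ichikawa) in 5 μl in 1536-well plates and pin-dosed with library compounds in DMSO at 11 threefold steps from 47 μM down to 0.79 nM. After 48 h at 37°C, CellTiter-Glo One luminescence was read. Viability is reported as a percentage of the DMSO wells on each plate, with cell-free wells as background.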

P12-Ichikawa [2] = assay: as above
Outline: as §1

SEM cells = assay: as above
Outline: as §1

NOMO1 [3] = assay: AUC of viability dose-response curve (% viability x log10 dose units); higher = less sensitive
Outline: (§2)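 Viability of medium-adapted leukemia cells was measured by CellTiter-Glo One luminescence after 48 h at 37°C with library compounds in DMSO. Doses were 11 threefold steps from 47 μM to 0.79 nM, in 1536-well plates at 500 or 1000 cells/well. Signals were normalised per plate to DMSO and cell-free wells and fitted with a four-parameter log-logistic model on log10 dose. Area under the curve was integrated by trapezoidal rule, with curves exceeding full viability scaled and failed quality-control curves removed.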

P12-Ichikawa [4] = assay: as above
Outline: as §2

COC1=CC=C2CN(C)CC[C@@]34\C=C/[C@H](O)C[C@@H]3OC1=C24
cell viability [%]
Conditions	NOMO1 [1]	P12-Ichikawa [2]	SEM cells
HPLM + 10% dialyzed FBS, 0.000781 µM	–	–	119
HPLM + 10% dialyzed FBS, 0.00234 µM	–	–	113
HPLM + 10% dialyzed FBS, 0.00702 µM	–	–	115
HPLM + 10% dialyzed FBS, 0.0211 µM	–	–	27
HPLM + 10% dialyzed FBS, 0.0632 µM	–	–	117
HPLM + 10% dialyzed FBS, 0.19 µM	–	–	111
HPLM + 10% dialyzed FBS, 0.569 µM	–	–	114
HPLM + 10% dialyzed FBS, 1.71 µM	–	–	126
HPLM + 10% dialyzed FBS, 5.12 µM	–	–	103
HPLM + 10% dialyzed FBS, 15.4 µM	–	–	119
HPLM + 10% dialyzed FBS, 46.1 µM	–	–	103
RPMI 5 mM glucose + 10% FBS, 0.000781 µM	128	–	–
RPMI 5 mM glucose + 10% FBS, 0.00234 µM	124	–	–
RPMI 5 mM glucose + 10% FBS, 0.00702 µM	120	–	–
RPMI 5 mM glucose + 10% FBS, 0.0211 µM	112	–	–
RPMI 5 mM glucose + 10% FBS, 0.0632 µM	124	–	–
RPMI 5 mM glucose + 10% FBS, 0.19 µM	130	–	–
RPMI 5 mM glucose + 10% FBS, 0.569 µM	118	–	–
RPMI 5 mM glucose + 10% FBS, 1.71 µM	123	–	–
RPMI 5 mM glucose + 10% FBS, 5.12 µM	126	–	–
RPMI 5 mM glucose + 10% FBS, 15.4 µM	108	–	–
RPMI 5 mM glucose + 10% FBS, 46.1 µM	104	–	–
RPMI 5 mM glucose + 10% dialyzed FBS, 0.000781 µM	126	121	108
RPMI 5 mM glucose + 10% dialyzed FBS, 0.00234 µM	121	124	111
RPMI 5 mM glucose + 10% dialyzed FBS, 0.00702 µM	118	118	126
RPMI 5 mM glucose + 10% dialyzed FBS, 0.0211 µM	119	117	25.3
RPMI 5 mM glucose + 10% dialyzed FBS, 0.0632 µM	118	130	114
RPMI 5 mM glucose + 10% dialyzed FBS, 0.19 µM	129	120	125
RPMI 5 mM glucose + 10% dialyzed FBS, 0.569 µM	120	119	104
RPMI 5 mM glucose + 10% dialyzed FBS, 1.71 µM	115	121	107
RPMI 5 mM glucose + 10% dialyzed FBS, 5.12 µM	110	82.6	96.3
RPMI 5 mM glucose + 10% dialyzed FBS, 15.4 µM	108	102	100
RPMI 5 mM glucose + 10% dialyzed FBS, 46.1 µM	113	111	99.3

AUC of viability dose-response curve
Conditions	HPLM + 10% dialyzed FBS	RPMI 5 mM glucose + 10% FBS	RPMI 5 mM glucose + 10% dialyzed FBS
NOMO1 [3]	437	468	451
P12-Ichikawa [4]	449	456	454

Cc1onc(-c2ccccc2)c1C(=O)N[C@@H]1C(=O)N2[C@@H]1SC(C)(C)[C@@H]2C(=O)[O-].[Na+]
cell viability [%]
Conditions	NOMO1 [1]	P12-Ichikawa [2]	SEM cells
HPLM + 10% dialyzed FBS, 0.000781 µM	120	109	85.9
HPLM + 10% dialyzed FBS, 0.00234 µM	131	116	75.7
HPLM + 10% dialyzed FBS, 0.00702 µM	105	120	87.2
HPLM + 10% dialyzed FBS, 0.0211 µM	113	108	84
HPLM + 10% dialyzed FBS, 0.0632 µM	134	116	86.5
HPLM + 10% dialyzed FBS, 0.19 µM	98.5	113	75.3
HPLM + 10% dialyzed FBS, 0.569 µM	95.5	113	89.6
HPLM + 10% dialyzed FBS, 1.71 µM	64.5	104	93.4
HPLM + 10% dialyzed FBS, 5.12 µM	77.8	86.4	85.2
HPLM + 10% dialyzed FBS, 15.4 µM	51.1	81.3	82.1
HPLM + 10% dialyzed FBS, 46.1 µM	54.7	77.2	80.2
RPMI 5 mM glucose + 10% FBS, 0.000781 µM	112	114	109
RPMI 5 mM glucose + 10% FBS, 0.00234 µM	111	117	94.2
RPMI 5 mM glucose + 10% FBS, 0.00702 µM	117	111	105
RPMI 5 mM glucose + 10% FBS, 0.0211 µM	104	111	114
RPMI 5 mM glucose + 10% FBS, 0.0632 µM	112	130	108
RPMI 5 mM glucose + 10% FBS, 0.19 µM	103	122	109
RPMI 5 mM glucose + 10% FBS, 0.569 µM	101	112	114
RPMI 5 mM glucose + 10% FBS, 1.71 µM	79.5	85.3	86.4
RPMI 5 mM glucose + 10% FBS, 5.12 µM	77.7	71	102
RPMI 5 mM glucose + 10% FBS, 15.4 µM	84.7	71.8	132
RPMI 5 mM glucose + 10% FBS, 46.1 µM	56.8	68.2	103
RPMI 5 mM glucose + 10% dialyzed FBS, 0.000781 µM	111	104	115
RPMI 5 mM glucose + 10% dialyzed FBS, 0.00234 µM	109	112	104
RPMI 5 mM glucose + 10% dialyzed FBS, 0.00702 µM	115	131	111
RPMI 5 mM glucose + 10% dialyzed FBS, 0.0211 µM	114	139	113
RPMI 5 mM glucose + 10% dialyzed FBS, 0.0632 µM	101	123	133
RPMI 5 mM glucose + 10% dialyzed FBS, 0.19 µM	97.4	100	112
RPMI 5 mM glucose + 10% dialyzed FBS, 0.569 µM	98.6	92.7	118
RPMI 5 mM glucose + 10% dialyzed FBS, 1.71 µM	88.9	89.6	107
RPMI 5 mM glucose + 10% dialyzed FBS, 5.12 µM	72.2	75.9	111
RPMI 5 mM glucose + 10% dialyzed FBS, 15.4 µM	67.1	62.4	108
RPMI 5 mM glucose + 10% dialyzed FBS, 46.1 µM	53.8	67.8	100

AUC of viability dose-response curve
Conditions	HPLM + 10% dialyzed FBS	RPMI 5 mM glucose + 10% FBS	RPMI 5 mM glucose + 10% dialyzed FBS
NOMO1 [3]	379	407	401
P12-Ichikawa [4]	440	414	394
